Data published in the supplement of paper PMC10307832.

Key:
Assay in all cases: relative viability (nuclei count vs DMSO), 5 days (fraction); higher = more cells survive
[1] = compound: CCOC1=CC=CC=C1N=NC2=C(NN(C2=O)C3=NC(=CS3)C4=CC=CC=C4)C [BAM7] + CC(=O)c1c(C)c2cnc(Nc3ccc(N4CCNCC4)cn3)nc2n(C2CCCC2)c1=O [Palbociclib] (partner 0.5 µM)
Procedure, shortened: (§1)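 Lung cancer cell lines in 1536-well plates were dosed by pin tool the day after seeding, either with one drug alone or with a fixed anchor-drug dose plus five library-drug doses (not always all listed) in √10 steps. After 5 days, cells were fixed and their nuclei stained in one step (final 0.05% Triton X-100, 1% formaldehyde, 1 ug/ml Hoechst), then counted on 4× images. Relative viability is the nuclei count in treated wells divided by that in vehicle wells. Values are medians of duplicate plates.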

[2] = compound: CCOC1=CC=CC=C1N=NC2=C(NN(C2=O)C3=NC(=CS3)C4=CC=CC=C4)C [BAM7] + CCNC(=O)c1noc(-c2cc(C(C)C)c(O)cc2O)c1-c1ccc(CN2CCOCC2)cc1 [Luminespib] (partner 0.01 µM)
Procedure, shortened: as §1

[3] = compound: CCOC1=CC=CC=C1N=NC2=C(NN(C2=O)C3=NC(=CS3)C4=CC=CC=C4)C [BAM7] + NC(=O)Nc1cc(-c2cccc(F)c2)sc1C(=O)N[C@H]1CCCNC1 [AZD7762] (partner 0.2 µM)
Procedure, shortened: as §1

[4] = compound: CCn1c(-c2nonc2N)nc2c(C#CC(C)(C)O)ncc(OC[C@H]3CCCNC3)c21 + CC(=O)c1c(C)c2cnc(Nc3ccc(N4CCNCC4)cn3)nc2n(C2CCCC2)c1=O [Palbociclib] (partner 0.5 µM)
Procedure, shortened: as §1

Cell Line	relative viability ([1]; first compound 0.5 µM)	relative viability ([1]; first compound 5 µM)	relative viability ([1]; first compound 15.81 µM)	relative viability ([1]; first compound 50 µM)	relative viability ([2]; first compound 0.5 µM)	relative viability ([2]; first compound 5 µM)	relative viability ([2]; first compound 15.81 µM)	relative viability ([2]; first compound 50 µM)	relative viability ([3]; first compound 0.5 µM)	relative viability ([3]; first compound 5 µM)	relative viability ([3]; first compound 15.81 µM)	relative viability ([3]; first compound 50 µM)	relative viability ([4]; first compound 0.01 µM)	relative viability ([4]; first compound 0.03162 µM)	relative viability ([4]; first compound 0.1 µM)	relative viability ([4]; first compound 0.3162 µM)	relative viability ([4]; first compound 1 µM)
NCI-H2085	0.462	0.483	0.446	0.45	0.436	0.376	0.503	0.372	0.967	0.709	0.915	0.991	0.49	0.426	0.481	0.455	0.48
NCI-H727	0.579	0.689	0.714	0.731	0.215		0.345	0.33	0.586	0.675	0.678	0.41	0.667	0.695	0.52	0.647	0.734
NCI-H441	0.285	0.191	0.205	0.267	0.411	0.326	0.381	0.351	1.35	1.46	0.888	1.12	0.225	0.206	0.227	0.193	0.207
LOU-NH91	0.458	0.569	0.538	0.517	0.38	0.336	0.332	0.347	0.796	0.794	0.75	0.793	0.511	0.541	0.527	0.535	0.479
NCI-H3122	0.174	0.225	0.186	0.198	0.0898	0.13	0.0656	0.0782	0.946	1.13	0.918	0.846	0.177	0.18	0.176	0.175	0.219
NCI-H460	0.179	0.148	0.216	0.165	0.0323	0.0283	0.029	0.0339	0.595	0.751	0.494	0.571	0.146	0.0929	0.18	0.127	0.139
NCI-H650	0.324	0.32	0.272	0.318	0.73	1.03	0.755	0.917	0.913	0.992	1.01	1.15	0.318	0.33	0.304	0.368	0.325
NCI-H1793	0.252	0.291	0.251	0.34	0.172	0.153	0.201	0.17	0.544	0.341	0.428	0.426	0.295	0.326		0.295	0.315
NCI-H1734	0.38	0.332	0.364	0.318	0.215	0.202	0.171	0.211	0.559	0.642	0.526	0.548	0.375	0.332	0.306	0.303	0.33
LXF-289	0.63	0.62	0.616	0.616	0.756	0.686	0.628	0.665	1.12	1.17	1.13	1.04	0.63	0.568	0.608	0.581	0.605
H3255	0.337	0.341	0.359	0.355	0.801	1.12	0.787	1.03	0.831	0.838	0.73	0.847	0.291	0.303	0.345	0.296	0.297
201T	0.358	0.336	0.307	0.335	0.984	1.11	0.793	1.01	0.705	0.688	0.715	0.678	0.35	0.378	0.33	0.352	0.36
NCI-H2126	0.334	0.332	0.345	0.362	0.891	0.86	0.76	0.954	0.804	0.983	1.03	0.936	0.325	0.319	0.365	0.335	0.377
HOP-62	0.45	0.385	0.454	0.491	0.89	0.987	0.911	0.844	0.648	0.917	0.733	0.342	0.414	0.436	0.308	0.383	0.395
CAL-12T	0.593	0.372	0.419	0.513	0.327	0.374	0.491	0.508	0.589	0.714	0.557	0.609	0.39	0.448	0.468	0.462	0.553
NCI-H1755	0.462	0.466	0.439	0.436	0.431	0.495	0.525	0.524	0.472	0.437	0.495	0.405	0.451	0.514	0.463	0.437	0.422
